Here are results for 24 compounds from patent US20260355182A1, “ISOQUINOLINE DERIVATIVE, SYNTHESIS METHOD THEREFOR, AND USE THEREOF” (Harbin Gloria Pharmaceuticals Co., Ltd., priority 2023, published 2026).

The subject of one series is glucose metabolism. As to conditions: human, in vivo; cited from earlier work.
For another series, the target named is T1, Pgk1 (Homo sapiens, UniProt P00558).
T1 sequence (P00558 1-417): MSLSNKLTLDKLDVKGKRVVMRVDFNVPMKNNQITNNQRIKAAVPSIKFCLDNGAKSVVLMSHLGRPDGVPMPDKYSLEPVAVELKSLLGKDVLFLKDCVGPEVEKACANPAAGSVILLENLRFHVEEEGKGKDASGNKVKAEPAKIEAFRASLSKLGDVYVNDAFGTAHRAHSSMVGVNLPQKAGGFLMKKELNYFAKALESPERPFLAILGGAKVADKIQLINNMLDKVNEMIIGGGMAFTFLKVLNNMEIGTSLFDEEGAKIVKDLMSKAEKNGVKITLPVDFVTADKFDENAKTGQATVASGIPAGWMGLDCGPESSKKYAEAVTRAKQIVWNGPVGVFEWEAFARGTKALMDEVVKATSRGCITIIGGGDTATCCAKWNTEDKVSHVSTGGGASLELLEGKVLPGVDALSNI
Briefly: Affinity for Pgk1 protein (Biacore T200). Format: binding. Particulars: drug alone; amount of small-molecule drug bound. On the procedure: Example 30: Determination of Affinities of Compounds for Pgk1 Protein
Purified Pgk1 protein (with a concentration of 1 mg/mL) was immobilized on a Biacore T200 chip. […] The obtained curves can calculate parameters such as affinity and Rmax.

A further series relates to diabetic patients. Particulars: cited from earlier work.
A further series deals with patients. Particulars: cited from earlier work.
Series [1] relates to MPTP-induced Parkinson's disease model mice. Briefly: MPTP-induced mouse model of Parkinson's disease, rotarod and tyrosine hydroxylase Western blot. Format: in vivo. On the procedure:
Male mice aged 3 months were used and fed normally. The acute MPTP modeling method (see Sonsalla P K, Heikkila R E. The influence of dose and dosing interval on MPTP-induced dopaminergic neurotoxicity in mice. Eur J Pharmacol 1986; 129(3): 339-45.) was employed. MPTP was injected intraperitoneally four times in total at a dose of 20 mg/kg body weight per injection, with a 2-hour interval between each injection. MPTP was dissolved in normal saline, and the control group received an equal dose of normal saline. T2 was dissolved in DMSO and diluted with normal saline to the desired concentration. Accordingly, equal doses of DMSO and normal saline were administered during the treatment. On the day of MPTP model establishment, mice were administered either T2 (treatment group) or DMSO (control group). Subsequently, mice in all groups were administered the corresponding drugs daily. Mouse behavior was tested using a rotarod (E103, UGO BASILE). First, mice were pre-trained for two consecutive days at a constant speed of 15 revolutions per minute (15 rpm) until they could stay on the rod for more than 60 seconds. On day 7 after MPTP injection, mice were tested on the rotarod in an accelerating mode (2 rpm to 45 rpm). The latency to fall from the rotarod was recorded, and the behavior was monitored by a camera. After the experiment, the mice were sacrificed, and the striatal brain tissue was harvested for Western blot assay. Tyrosine hydroxylase (TH) is a protein specifically expressed in dopaminergic neurons. Therefore, whether dopaminergic neurons were damaged can be determined by Western blot assay using an anti-TH antibody.
On the technique in general: In the rotarod test animals must keep their balance on a rotating rod.

For series [2], the system named is db/db mice. Briefly: Acute glucose-response assay in non-fasted db/db mice. In kind it is in vivo. Particulars: s.c., 2 h; TZ 0.5, liraglutide 0.6, T6 0.5 mg/Kg. On the procedure:
The db/db mice were used to evaluate the glucose-lowering activity of compound T6 in comparison with reference metabolic agents (TZ 0.5 mg/Kg, liraglutide 0.6 mg/Kg, T6 0.5 mg/Kg). In FIG. 15, A) for the acute glucose-response assay, drugs were administered to non-fasted db/db mice. Immediately after drug administration (s. c.), mice were deprived of food and water, and blood glucose levels were measured from tail blood samples 2 h later. The relative percentage change in blood glucose was calculated by comparing glucose levels before and after treatment in the same animal. […] HbA1c levels were then measured using a glycated hemoglobin A1c enzyme-linked immunosorbent assay, also referred to as a mouse HbA1c ELISA assay. […] Data are presented as mean±error bars, with individual circles representing individual animals. Statistical significance is indicated as P<0.001 (**) and P<0.0001 (***).

The subject of series [3] is db/db mice. Description: Hypoglycemic effect in diabetic model db/db mice, intraperitoneal. In kind it is in vivo. Particulars: 0.6 mg/Kg i.p., 4 hours. On the procedure: Gene knockout db/db mice are a classic model of hyperglycemia and obesity. Under normal feeding conditions, mice aged 3 months or older developed hyperglycemia and obesity. After the mice were provided with only drinking water (fasted) for 6 hours, blood was collected from the tail of the mice to measure blood glucose values. Subsequently, different drugs, including saline (control), liraglutide at 0.6 mg/Kg, low-concentration T6 (T6 low, 0.1 mg/Kg), and high-concentration T6 (T6 high, 0.5 mg/Kg), were injected intraperitoneally. 4 hours later, blood was collected from the tail of the mice to measure the blood glucose levels. Each group consisted of 6 mice. Blood glucose levels before administration (Vbefore) and after administration (Vafter) were obtained for each mouse. The effect of the drug on blood glucose (%) was calculated as follows:
(Vbefore−Vafter)×100/Vbefore.

The subject of the next series is rats. As to conditions: combined administration of terazosin and propranolol; cited from earlier work.
For another series, the system named is SK-N-SH cells. Briefly: Effects of compounds on cellular ATP levels (Promega ATP assay). In kind it is cell-based, human. As to conditions: 1 μM, 48 hours, 5% O2; untreated = 1. On the procedure: Effects of compounds on cellular ATP levels.
Human Neuroblastoma Cell Line (SK-N-SH) is a human-derived neuroblastoma cell line. SK-N-SH cells were seeded in a 6-well plate at a density of 6×10^4 cells per well. The cells were cultured for 12 hours under 5% O2. Various drugs at a concentration of 1 μM were added. After 48 hours, the cells were harvested. Cellular ATP levels were measured using the Promega ATP assay kit. The experiment was repeated 6 times to 10 times. The experimental results were illustrated in FIG. 1. […] T1 to T11 were the experimental groups.

In series [4] the test system is Parkinson's disease and related diseases. Particulars: long-term use; cited from earlier work.
For series [5], the system named is phosphoglycerate kinase 1 (Pgk1). Particulars: previous studies; cited from earlier work.
The test system of a further series is al adrenergic receptor. Particulars: cited from earlier work.

On to `COC1=C(OC)C(=O)C(C/C=C(\C)CC/C=C(\C)CC/C=C(\C)CC/C=C(\C)CC/C=C(\C)CC/C=C(\C)CC/C=C(\C)CC/C=C(\C)CC/C=C(\C)CCC=C(C)C)=C(C)C1=O` [coenzyme Q10], for which the “Clinical efficacy on glucose metabolism” value in the series on glucose metabolism is recorded as “either no effect or clinical efficacy in only a small subset of the population”.

In the case of `Nc1nc(N2CCN(C(=O)[C@H]3CCCO3)CC2)cc2cc3c(cc12)CCO3` [Compound T5], at Pgk1, the Rmax is on record as 86 RU.

With insulin, the “Clinical efficacy on glucose metabolism” value with glucose metabolism is reported as “either no effect or clinical efficacy in only a small subset of the population”. Consider `COc1cc2nc(N3CCN(C(=O)C4COc5ccccc5O4)CC3)nc(N)c2cc1OC` (stereo not drawn) [doxazosin], for which the “Blood glucose and lipid levels” value in the series on diabetic patients is recorded as “efficacy is extremely limited or ineffective”. For the same compound, in the series on patients, the Side effects result is “intraoperative floppy iris syndrome (IFIS), hypotension, fatigue, dizziness, syncope, and blurred vision”. On to `Oc1ccc(C=Cc2cc(O)cc(O)c2)cc1` [resveratrol, reference compound], for which the “Clinical efficacy on glucose metabolism” value in the series with glucose metabolism was “either no effect or clinical efficacy in only a small subset of the population”. For `Nc1nc(N2CCN(C(=O)[C@@H]3CCCN3)CC2)cc2cc3c(cc12)OCO3` [Compound T9], the Rmax on Pgk1 is reported as 87 RU. On the same count and under the same terms, in the case of `CC1Oc2cc3cc(N4CCN(C(=O)[C@H]5CCCO5)CC4)nc(N)c3cc2O1` (stereo partly drawn) [Compound T3] it was 93 RU. For `COc1cc2nc(N(C)CCCNC(=O)C3CCCO3)nc(N)c2cc1OC` (stereo not drawn) [alfuzosin], the Side effects result in the series with patients is “intraoperative floppy iris syndrome (IFIS), hypotension, fatigue, dizziness, syncope, and blurred vision”.

As for `CN(CC(=O)O)C(=N)N` [creatine], the “Clinical efficacy on glucose metabolism” value in the series on glucose metabolism is “either no effect or clinical efficacy in only a small subset of the population”. At Pgk1, `Nc1nc(N2CCN(C(=O)[C@@H]3CCCO3)CC2)cc2cc3c(cc12)OCO3` [Compound T2] gave an Rmax of 122 RU. In addition, in series [1] (T2 0.1 mg/Kg, striatum, Western blot), the “Tyrosine hydroxylase level / dopaminergic neurons” value is reported as “exerted a protective effect on dopaminergic neurons”. In addition, in [1] (T2 0.1, 0.3 and 1 mg/Kg, day 7 after MPTP), the “Motor ability (rotarod)” value is on record as “exerted protective effects”. Turning to `Nc1ncnc2c1ncn2[C@@H]1O[C@H](COP(=O)(O)OP(=O)(O)O)[C@@H](O)[C@H]1O` [ADP, reference compound], the Rmax on Pgk1 is on record as 35 RU. Turning to `CCCCCCCCCCCCCCCC(=O)N[C@@H](CCC(=O)NCCCC[C@H](NC(=O)[C@H](C)NC(=O)[C@H](C)NC(=O)[C@H](CCC(N)=O)NC(=O)CNC(=O)[C@H](CCC(=O)O)NC(=O)[C@H](CC(C)C)NC(=O)[C@H](Cc1ccc(O)cc1)NC(=O)[C@H](CO)NC(=O)[C@H](CO)NC(=O)[C@@H](NC(=O)[C@H](CC(=O)O)NC(=O)[C@H](CO)NC(=O)[C@@H](NC(=O)[C@H](Cc1ccccc1)NC(=O)[C@@H](NC(=O)CNC(=O)[C@H](CCC(=O)O)NC(=O)[C@H](C)NC(=O)[C@@H](N)Cc1cnc[nH]1)[C@@H](C)O)[C@@H](C)O)C(C)C)C(=O)N[C@@H](CCC(=O)O)C(=O)N[C@@H](Cc1ccccc1)C(=O)N[C@H](C(=O)N[C@@H](C)C(=O)N[C@@H](Cc1c[nH]c2ccccc12)C(=O)N[C@@H](CC(C)C)C(=O)N[C@H](C(=O)N[C@@H](CCCNC(=N)N)C(=O)NCC(=O)N[C@@H](CCCNC(=N)N)C(=O)NCC(=O)O)C(C)C)[C@@H](C)CC)C(=O)O` [liraglutide, reference compound], the “Acute change in blood glucose” value in the series on db/db mice [2] is on record as “marked reduction in blood glucose”. Besides, the “Hypoglycemic effect (liraglutide)” value in the series on db/db mice [3] is “optimal hypoglycemic effect”.

For the compound `O=C(O)c1cccnc1` [vitamin B3], the “Clinical efficacy on glucose metabolism” value with glucose metabolism is recorded as “either no effect or clinical efficacy in only a small subset of the population”.

For the compound `CO[C@H]1C[C@@H]2CC[C@@H](C)[C@@](O)(O2)C(=O)C(=O)N2CCCC[C@H]2C(=O)O[C@H]([C@H](C)C[C@@H]2CC[C@@H](O)[C@H](OC)C2)CC(=O)[C@H](C)/C=C(\C)[C@@H](O)[C@@H](OC)C(=O)[C@H](C)C[C@H](C)/C=C/C=C/C=C/1C` [rapamycin, reference compound], in the series with glucose metabolism, the “Clinical efficacy on glucose metabolism” value is “either no effect or clinical efficacy in only a small subset of the population”.

Consider `CC1(C)Oc2cc3cc(N4CCN(C(=O)[C@H]5CCCO5)CC4)nc(N)c3cc2O1` [Compound T4], for which the Rmax on Pgk1 is recorded as 75 RU.

Regarding `CC(C)NCC(O)COc1cccc2ccccc12` (stereo not drawn) [propranolol], the “Blood glucose in rats” value with rats is reported as “did not affect blood glucose in rats”. Turning to `Nc1nc(N2CCN(C(=O)c3ccco3)CC2)cc2cc3c(cc12)OCO3` [Compound T11], the Rmax result at Pgk1 is recorded as “None”. For the same compound, the “Activity in increasing cellular ATP” value in the series with SK-N-SH cells is listed as “no such activity of increasing cellular ATP”. As for `Nc1nc(N2CCN(C(=O)[C@H]3CCCN3)CC2)cc2cc3c(cc12)OCO3` [Compound T8], the Rmax on Pgk1 worked out at 87 RU. The same measure, in the same setting: then `Nc1nc(N2CCN(C(=O)C3CCCC3)CC2)cc2cc3c(cc12)OCO3` [Compound T7], with 159 RU.

For `CCOc1ccccc1OCCN[C@H](C)Cc1ccc(OC)c(S(N)(=O)=O)c1` [tamsulosin], in series [4], the “Effect on incidence of Parkinson's disease and related diseases” value was “do not exhibit similar effects”. Besides, the Side effects entry with patients was “intraoperative floppy iris syndrome (IFIS), hypotension, fatigue, dizziness, syncope, and blurred vision”. As to `Nc1nc(N2CCN(C(=O)[C@H]3CCCO3)CC2)cc2cc3c(cc12)OCO3` [Compound T1], on Pgk1, the Rmax is reported as 116 RU. Consider `CN(C)C(=N)N=C(N)N` [metformin, reference compound], for which the “Clinical efficacy on glucose metabolism” value in the series on glucose metabolism is “either no effect or clinical efficacy in only a small subset of the population”. `COc1cc2cc(N3CCN(C(=O)C4CCCO4)CC3)nc(N)c2cc1OC` (stereo not drawn) [TZ-md]: the “Binding to / activation of Pgk1” value in series [5] is recorded as “still retains the effect of activating Pgk1”. Moreover, the “Inhibition of the al adrenergic receptor” value in the series on al adrenergic receptor is on record as “does not inhibit the al adrenergic receptor”. Further, in the series with al adrenergic receptor (substitution of quinazoline nitrogen by carbon, vs terazosin), the “Reduction of affinity for the al adrenergic receptor” value was “more than 1000 fold”. As to `Nc1nc(N2CCN(C(=O)[C@H]3CCCO3)CC2)cc2cc3c(cc12)OCCO3` [Compound T10], the Rmax entry on Pgk1 is on record as “None”. Further, the “Activity in increasing cellular ATP” value in the series on SK-N-SH cells is listed as “no such activity of increasing cellular ATP”.
